The target in this experiment is T1, mutant BKCa channel (G803D/N806K) (Rattus norvegicus, UniProt Q62976, G803D/N806K).
T1 construct: expressed in transfected cells
The experiment in a line: Cell-based TI+ fluorescence (FluxOR) assay in AD-293 cells. The following applies: for TI+-fluorescence enhancement (initial RFU increase): 10 μM, n=4. How it is done:
AD-293 cells (Lee et al., 2013), as a modified HEK293 cell for expressing a mutant BKCa channel, were placed in DMEM (Dulbecco's Modified Eagle's medium) supplemented with 10% fetal bovine serum and 1 mg/ml geneticin (Gibco) as an antibiotic. The cells were cultured under a humidified condition of 5% CO2 and 37° C.
AD-293 cells stably expressing the mutant BKCa channel (G803D/N806K) were used for cell-based assays (Lee et al., 2013). Approximately 20,000 cells/well were inoculated on a black-wall assay plate (Corning Incorporated) coated with poly-D-lysine (Sigma-Aldrich), which is 96-well clear-bottom. A FluxOR™ […] (Invitrogen) was used for initial screening of compound libraries, and for further assay of candidate compounds. Experiments were performed according to the manufacturer's following guidelines: growth medium was replaced with 80 μl/well of loading buffer containing FluxOR™ fluorescent dye, and incubation was carried out for 1 hour under a light-free condition. After the incubation, the loading buffer was replaced with 100 μl/well of assay buffer containing various concentrations of compounds of interest, followed by incubation for 20 minutes to 30 minutes. DMSO (1%) was vehicle and the vehicle was used for all test compounds. CTBIC (Cormemis et al. 2005; Lee et al. 2012), previously identified as an activator of the BKCa channel, was used as a positive control. For fluorescence measurements, synergy TM H1 hybrid multi-mode microplate reader (BioTek Instrument Inc., Winnoski, Vt.) and Cen5 software was used in initial screening. For additional assays, Flexstation 3 multi-mode microplate reader (Molecular Devices) and SoftMax®Pro software were used, respectively. A fluorescence signal was obtained at an excitation wavelength of 485 nm and an emission wavelength of 528 nm. Membrane polarization was induced by a stimulus buffer containing thallium ion. The fluorescence signal was measured under two conditions: every 10 seconds for 2 minutes before treating the stimulation buffer and then every 10 seconds for 3 minutes after addition of stimulation buffer for synergy H1, and every 2 seconds for 20 seconds before stimulus buffer treatment, and then every 2 seconds for 160 seconds after adding the stimulus buffer for FlexStation 3.
A fluorescence signal change was measured based on a relative fluorescence unit (RFU) or F/F0 where F0 is ta minimum fluorescence value of each fluorescence trace. To quantitatively compare activation effects of kurarinone and its derivatives, an initial fluorescence increase was calculated using first three points after treatment with the stimulation buffer, and a linear slope was predicted using OriginPro 9.1 (OriginLab Corp., Northampton, Mass.).

The values that follow come from patent US11517556B2, “Composition for BKCa channel activation” (GWANGJU INSTITUTE OF SCIENCE AND TECHNOLOGY, priority 2016, dated 2022).

T1 sequence (Q62976 whole entry G803D/N806K): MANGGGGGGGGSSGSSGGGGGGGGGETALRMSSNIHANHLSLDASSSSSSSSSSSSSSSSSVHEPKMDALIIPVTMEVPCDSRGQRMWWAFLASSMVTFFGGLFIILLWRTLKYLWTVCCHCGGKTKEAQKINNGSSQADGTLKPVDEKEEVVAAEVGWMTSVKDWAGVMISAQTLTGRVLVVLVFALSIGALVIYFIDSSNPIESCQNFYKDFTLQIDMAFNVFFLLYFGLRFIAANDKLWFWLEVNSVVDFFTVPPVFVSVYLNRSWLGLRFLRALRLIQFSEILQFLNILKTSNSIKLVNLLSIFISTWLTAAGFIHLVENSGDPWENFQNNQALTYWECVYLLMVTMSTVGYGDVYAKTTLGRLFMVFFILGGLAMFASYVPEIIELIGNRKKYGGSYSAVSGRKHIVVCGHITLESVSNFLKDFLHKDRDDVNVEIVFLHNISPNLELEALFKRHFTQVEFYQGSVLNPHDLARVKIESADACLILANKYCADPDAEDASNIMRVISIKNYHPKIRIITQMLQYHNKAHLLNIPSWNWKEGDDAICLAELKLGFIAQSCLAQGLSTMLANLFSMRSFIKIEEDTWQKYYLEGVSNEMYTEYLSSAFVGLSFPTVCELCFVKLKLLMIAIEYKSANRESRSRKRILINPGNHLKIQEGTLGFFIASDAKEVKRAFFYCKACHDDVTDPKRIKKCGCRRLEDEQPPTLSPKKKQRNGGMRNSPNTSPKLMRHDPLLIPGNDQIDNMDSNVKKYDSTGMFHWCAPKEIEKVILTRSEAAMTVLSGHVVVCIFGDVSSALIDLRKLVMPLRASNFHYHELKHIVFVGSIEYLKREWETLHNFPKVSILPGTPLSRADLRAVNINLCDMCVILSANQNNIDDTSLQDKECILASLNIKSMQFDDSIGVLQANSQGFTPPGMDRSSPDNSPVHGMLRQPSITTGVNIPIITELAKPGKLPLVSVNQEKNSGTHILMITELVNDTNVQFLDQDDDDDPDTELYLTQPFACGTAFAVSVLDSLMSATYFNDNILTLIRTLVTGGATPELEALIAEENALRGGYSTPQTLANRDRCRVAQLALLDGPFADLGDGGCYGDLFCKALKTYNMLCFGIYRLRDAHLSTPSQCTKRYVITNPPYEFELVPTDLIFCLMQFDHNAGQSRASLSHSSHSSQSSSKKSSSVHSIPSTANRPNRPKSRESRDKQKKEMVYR

As for `CC(C)(O)[C@H]1O[C@H]2CC[C@@]3(C)[C@@](O)(CC[C@H]4Cc5c([nH]c6ccccc56)[C@@]43C)C2=CC1=O` [pacilin, reference compound], the “block of kurarinone-induced fluorescence enhancement” value (co-treatment of 1 μM blocker with kurarinone (5 μM)) is reported as “completely blocked”.
With `O=C1C[C@@H](c2ccc(O)cc2)Oc2cc(O)cc(O)c21` [naringenin], the “TI+-fluorescence enhancement (initial RFU increase)” value is on record as “strong fluorescence increase”.
On the same count and under the same terms, then `CC(C)=CCc1c(O)cc(O)c2c1O[C@H](c1ccc(O)cc1O)CC2=O` [leachianone G], with “strong fluorescence increase”; and `C=C(C)[C@H](CCC(C)(C)O)Cc1c(O)cc(OC)c2c1O[C@H](c1ccc(O)cc1O)CC2=O` [kurarinol, reference compound], with “weaker fluorescence effects”.
